In patent publication US8063065B2, “Azaindazole compounds as CCR1 receptor antagonists” (Boehringer Ingelheim International GmbH, priority 2008, dated 2011) one finds IC50 data, which are given here for 27 compounds.

This test has as its target T1, CCR1 (Homo sapiens, UniProt P32246).
T1 sequence (P32246 1-355): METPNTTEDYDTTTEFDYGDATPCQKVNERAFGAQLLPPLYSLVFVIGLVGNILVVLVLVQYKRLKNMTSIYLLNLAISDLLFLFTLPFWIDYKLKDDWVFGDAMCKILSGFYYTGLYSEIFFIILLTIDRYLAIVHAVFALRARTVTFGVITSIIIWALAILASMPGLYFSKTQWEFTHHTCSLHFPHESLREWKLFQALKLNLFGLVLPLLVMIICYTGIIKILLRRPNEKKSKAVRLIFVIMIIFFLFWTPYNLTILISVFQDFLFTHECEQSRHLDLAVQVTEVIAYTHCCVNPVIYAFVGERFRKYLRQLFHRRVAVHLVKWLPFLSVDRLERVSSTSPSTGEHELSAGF
Nature of the test: Method B: calcium flux in CCR1 transfected cells (Calcium 4 dye, […] FDSS6000), block of the CCR1/MIP-1α interaction. The format is cell-based. Particulars: Method B: Calcium 4 dye, MIP-1alpha at EC80. The method, then:
Compounds are assessed for the ability to block the interaction of CCR1 and MIP-1α in a functional cellular assay measuring calcium flux in CCR1 transfected cells.
Method B: Non-adherent cells purchased from Chemicon Corporation (HTS005C), stably expressing recombinant CCR1 and G-alpha-16 are grown in RPMI 1640 medium (Mediatech 10-080-CM) supplemented with 10% FBS, 0.4 mg/mL Geneticin and penicillin/streptomycin. On the day of the assay, the cells are loaded with Calcium 4 dye (Molecular Devices R7448) with Probenecid (Invitrogen P346400) at 8E5 cells/mL for 1 hour at room temperature. After 1 hour, they are seeded in a 384-well tissue culture-treated plate at a density of 20,000 cells/well. Appropriately diluted test compound is added to the well to achieve a top concentration of 3,000 nM (diluted 4-fold with 10 doses total). The final concentration of DMSO is 1%. The buffer is HBSS (Invitrogen 14025) with 20 mM HEPES at pH 7.4. The cells incubate 30 minutes at 37 C and then 30 minutes at room temperature. The plates are transferred to the […] FDSS6000 where MIP-1alpha in 1% BSA is added at the EC80 final concentration. All plates must be read within 4 hours of the start of dye-loading. Wells+/−MIP-1alpha containing diluted DMSO instead of compound serve as the controls. Data are analyzed using Activity Base software.

Regarding `CC[C@H](NC(=O)c1cncc2c1cnn2-c1ccc(F)cc1)c1cccc(S(N)(=O)=O)n1` [1-(4-Fluorophenyl)-1H-pyrazolo[3,4-c]pyridine-4-carboxylic acid [(S)-1-(6-sulfamoyl-pyridin-2-yl)-propyl]-amide], the IC50 came to 0.3 nM.

Regarding `CC[C@H](NC(=O)c1cncc2c1cnn2-c1ccc(F)cc1)c1cccc(S(=O)(=O)CC)n1` [1-(4-Fluorophenyl)-1H-pyrazolo[3,4-c]pyridine-4-carboxylic acid [(S)-1-(6-ethanesulfonyl-pyridin-2-yl)-propyl]-amide], the IC50 is 0.5 nM.

For the compound `O=C(NCc1cnc(N2CCOCC2)s1)c1cncc2c1cnn2-c1ccc(F)cc1` [1-(4-Fluorophenyl)-1H-pyrazolo[3,4-c]pyridine-4-carboxylic acid (2-morpholin-4-yl-thiazol-5-ylmethyl)-amide], the IC50 was found to be 16 nM.

`CC[C@H](NC(=O)c1cncc2c1cnn2-c1ccc(F)cc1)c1ccn(S(=O)(=O)c2ccc(C)cc2)c1` [1-(4-Fluorophenyl)-1H-pyrazolo[3,4-c]pyridine-4-carboxylic acid {(S)-1-[1-(toluene-4-sulfonyl)-1H-pyrrol-3-yl]-propyl}-amide]: the IC50 worked out at 3 nM.

Consider `CCC(NC(=O)c1cncc2c1cnn2-c1ccc(F)cc1)c1nc(C(=O)OC)c(C)o1` (stereo not drawn) [2-(1-{[1-(4-Fluorophenyl)-1H-pyrazolo[3,4-c]pyridine-4-carbonyl]-amino}-propyl)-5-methyl-oxazole-4-carboxylic acid methyl ester], for which the IC50 amounted to 27 nM.

Turning to `COC(=O)CCS(=O)(=O)c1cc([C@H](C)NC(=O)c2cncc3c2cnn3-c2ccc(F)cc2)ccn1` [3-[4-((S)-1-{[1-(4-Fluorophenyl)-1H-pyrazolo[3,4-c]pyridine-4-carbonyl]-amino}-ethyl)-pyridine-2-sulfonyl]-propionic acid methyl ester], the IC50 was 37 nM.

Regarding `CC[C@H](NC(=O)c1cncc2c1cnn2-c1ccc(F)cc1)c1cnc(S(C)(=O)=O)o1` [1-(4-Fluorophenyl)-1H-pyrazolo[3,4-c]pyridine-4-carboxylic acid [(S)-1-(2-methanesulfonyl-oxazol-5-yl)-propyl]-amide], the IC50 worked out at 3 nM.

`CC[C@H](NC(=O)c1cncc2c1cnn2-c1ccc(F)cc1)c1cc(NC(C)C)nc(S(C)(=O)=O)c1` [1-(4-Fluorophenyl)-1H-pyrazolo[3,4-c]pyridine-4-carboxylic acid [(S)-1-(2-isopropylamino-6-methanesulfonyl-pyridin-4-yl)-propyl]-amide]: the IC50 was found to be 0.2 nM.

With `CC[C@H](NC(=O)c1cncc2c1cnn2-c1ccc(F)cc1)c1cccc(Cl)c1` [1-(4-Fluorophenyl)-1H-pyrazolo[3,4-c]pyridine-4-carboxylic acid [(S)-1-(3-chlorophenyl)-propyl]-amide], the IC50 was found to be 0.4 nM.

As to `CC[C@H](NC(=O)c1cncc2c1cnn2-c1ccc(F)cc1)c1cccc(S(C)(=O)=O)n1` [1-(4-Fluorophenyl)-1H-pyrazolo[3,4-c]pyridine-4-carboxylic acid [(S)-1-(6-methanesulfonyl-pyridin-2-yl)-propyl]-amide], the IC50 was 0.2 nM.

As to `C[C@H](NC(=O)c1cncc2c1cnn2-c1ccc(F)cc1)c1csc(S(C)(=O)=O)n1` [1-(4-Fluorophenyl)-1H-pyrazolo[3,4-c]pyridine-4-carboxylic acid [(S)-1-(2-methanesulfonyl-thiazol-4-yl)-ethyl]-amide], the IC50 amounted to 4 nM.

In the case of `CCC(NC(=O)c1cncc2c1cnn2-c1ccc(F)cc1)C1CCN(C(=O)OC(C)(C)C)CC1` (stereo not drawn) [4-(1-{[1-(4-Fluorophenyl)-1H-pyrazolo[3,4-c]pyridine-4-carbonyl]-amino}-propyl)-piperidine-1-carboxylic acid tert-butyl ester], the IC50 turned out to be 4 nM.

As to `CC[C@H](NC(=O)c1cncc2c1cnn2-c1ccc(F)cc1)c1ccnc(N(C)CCOC)c1` [1-(4-Fluorophenyl)-1H-pyrazolo[3,4-c]pyridine-4-carboxylic acid ((S)-1-{2-[(2-methoxy-ethyl)-methyl-amino]-pyridin-4-yl}-propyl)-amide], the IC50 was determined as 1 nM.

Consider `O=C(N[C@@H](CO)c1ccnc(Br)c1)c1cncc2c1cnn2-c1ccc(F)cc1` [1-(4-Fluorophenyl)-1H-pyrazolo[3,4-c]pyridine-4-carboxylic acid [(R)-1-(2-bromo-pyridin-4-yl)-2-hydroxy-ethyl]-amide], for which the IC50 is 2 nM.

On to `CC[C@H](NC(=O)c1cncc2c1cnn2-c1ccc(F)cc1)c1cncc(S(=O)(=O)CCC(=O)OC)c1` [3-[5-((S)-1-{[1-(4-Fluorophenyl)-1H-pyrazolo[3,4-c]pyridine-4-carbonyl]-amino}-propyl)-pyridine-3-sulfonyl]-propionic acid methyl ester], for which the IC50 worked out at 6.3 nM.

With `CC[C@H](NC(=O)c1cncc2c1cnn2-c1ccc(F)cc1)c1ccnc(C(C)(C)O)c1` [1-(4-Fluorophenyl)-1H-pyrazolo[3,4-c]pyridine-4-carboxylic acid {(S)-1-[2-(1-hydroxy-1-methyl-ethyl)-pyridin-4-yl]-propyl}-amide], the IC50 stood at 0.5 nM.

As to `CC[C@H](NC(=O)c1cncc2c1cnn2-c1ccc(F)cc1)c1ccnc(N(C)C2CCNCC2)c1` [1-(4-Fluorophenyl)-1H-pyrazolo[3,4-c]pyridine-4-carboxylic acid {(S)-1-[2-(methyl-piperidin-4-yl-amino)-pyridin-4-yl]-propyl}-amide], the IC50 stood at 11 nM.

Turning to `CS(=O)(=O)n1ccc2c(CNC(=O)c3cncc4c3cnn4-c3ccc(F)cc3)ccnc21` [1-(4-Fluorophenyl)-1H-pyrazolo[3,4-c]pyridine-4-carboxylic acid (1-methanesulfonyl-1H-pyrrolo[2,3-b]pyridin-4-ylmethyl)-amide], the half-maximal inhibitory concentration (IC50) was 3 nM.

In the case of `CC[C@H](NC(=O)c1cncc2c1cnn2-c1ccc(F)cc1)c1cc(Cl)nc(S(C)(=O)=O)c1` [1-(4-Fluorophenyl)-1H-pyrazolo[3,4-c]pyridine-4-carboxylic acid [(S)-1-(2-chloro-6-methanesulfonyl-pyridin-4-yl)-propyl]-amide], the IC50 was determined as 0.3 nM.

Regarding `CC[C@H](NC(=O)c1cncc2c1cnn2-c1ccc(F)cc1)c1ccnc(CO)c1` [1-(4-Fluorophenyl)-1H-pyrazolo[3,4-c]pyridine-4-carboxylic acid [(S)-1-(2-hydroxymethyl-pyridin-4-yl)-propyl]-amide], the IC50 came to 3 nM.

For `C[C@H](NC(=O)c1cncc2c1cnn2-c1ccc(F)cc1)c1cc(N(C)CC(N)=O)nc(S(C)(=O)=O)c1` [1-(4-Fluorophenyl)-1H-pyrazolo[3,4-c]pyridine-4-carboxylic acid {(S)-1-[2-(carbamoylmethyl-methyl-amino)-6-methanesulfonyl-pyridin-4-yl]-ethyl}-amide], the IC50 came out at 1 nM.

In the case of `CCC(NC(=O)c1cncc2c1cnn2-c1ccc(F)cc1)C1CCCN(C(=O)OC(C)(C)C)C1` (stereo not drawn) [3-(1-{[1-(4-Fluorophenyl)-1H-pyrazolo[3,4-c]pyridine-4-carbonyl]-amino}-propyl)-piperidine-1-carboxylic acid tert-butyl ester], the IC50 came out at 26 nM.

Consider `CCC(NC(=O)c1cncc2c1cnn2-c1ccc(F)cc1)c1nc(C(=O)NCC#N)co1` (stereo not drawn) [1-(4-Fluorophenyl)-1H-pyrazolo[3,4-c]pyridine-4-carboxylic acid {1-[4-(cyanomethyl-carbamoyl)-oxazol-2-yl]-propyl}-amide], for which the IC50 came out at 25 nM.

With `CC[C@H](NC(=O)c1cncc2c1cnn2-c1ccc(F)cc1)c1ccnc(C)c1` [1-(4-Fluorophenyl)-1H-pyrazolo[3,4-c]pyridine-4-carboxylic acid [(S)-1-(2-methyl-pyridin-4-yl)-propyl]-amide], the IC50 is 0.9 nM.

With `CC[C@H](NC(=O)c1cncc2c1cnn2-c1ccc(F)cc1)c1ccnc(C#N)c1` [1-(4-Fluorophenyl)-1H-pyrazolo[3,4-c]pyridine-4-carboxylic acid [(S)-1-(2-cyano-pyridin-4-yl)-propyl]-amide], the IC50 stood at 0.3 nM.

Take `CCS(=O)(=O)c1cncc([C@H](C)NC(=O)c2cncc3c2cnn3-c2ccc(F)cc2)c1` [1-(4-Fluorophenyl)-1H-pyrazolo[3,4-c]pyridine-4-carboxylic acid [(S)-1-(5-ethanesulfonyl-pyridin-3-yl)-ethyl]-amide]: the IC50 came to 4 nM.

In the case of `CC[C@H](NC(=O)c1cncc2c1cnn2-c1ccc(F)cc1)c1ccnc(N(C)CCO)c1` [1-(4-Fluorophenyl)-1H-pyrazolo[3,4-c]pyridine-4-carboxylic acid ((S)-1-{2-[(2-hydroxy-ethyl)-methyl-amino]-pyridin-4-yl}-propyl)-amide], the IC50 turned out to be 2 nM.
